Measurements as given in patent publication US20120128706A1, “IMMUNE ADJUVANT COMPRISING ATP” (priority 2007, published 2012).

Assays:
Balb/c mice [1] = experiment: Measurement of IgG1/IgG2 ratio in blood samples as an index of Th2/Th1 balance (Test Example 2); type: in vivo; conditions: for IgG1/IgG2 ratio (given as average of the absorbance): mouse, in vivo
Protocol: The blood sample collected on the 25th day from the start of the test was provided, and the IgG1/IgG2 ratio was measured as an index of Th2/Th1 balance.
Further, a blood sample obtained by inoculating only the antigenic substance by intraperitoneal administration instead of the dermal administration at the same time as in the administration schedule in Test Example 1 was used as a control blood sample for comparison.
The IgG1/IgG2 ratio was measured with a Mouse Monoclonal Antibody Isotyping Reagents kit (SIGMA).
Specifically, a mouse serum was diluted with PBS by a factor of 1000 to give a solution. The solution (100 μL) was added to wells in a plate and was incubated at 37° C. for one hr. Next, each well was washed three times with PBS, and 100 μL of isotyping specific reagents (reagents containing IgA, IgG1, IgG2a, and IgG2b), which had been diluted by a factor of 1000, were added to the wells followed by incubation at room temperature for 30 min. Each well was washed three times with PBST. A peroxidase labelled mouse IgG (manufactured by SIGMA) (100 μL), which had been diluted with PBST by a factor of 5000, was added to the wells, and the wells were allowed to stand at room temperature for one hr. The wells were then washed three times with PBST. Thereafter, ABTS was added as a chromophoric substrate, and incubation was carried out for 5 to 10 min. For each well, the absorbance was measured with Multiscan Ascent (manufactured by Thermo Labsystems, wave length 405 nm).

Balb/c mice [2] = experiment: Production amount of antibody by ELISA after dermal administration of antigenic substance with immunoadjuvant (Test Example 1); type: in vivo

Row | Compound | Th2/Th1 balance (type of immunity induced) (Balb/c mice [1]; from IgG1/IgG2 ratio, compared with antigenic substance only intraperitoneally or with cholera toxin) | IgG1/IgG2 ratio (given as average of the absorbance) (Balb/c mice [1]) | average±standard error of the absorbance (amount of antibody in mouse serum by ELISA) (Balb/c mice [2]; serum sample on the 25th day from start of test, dermal administration by tape preparation, serum diluted 1000-fold, wavelength 405 nm, n=4) | average±standard error of the absorbance (amount of antibody in mouse serum by ELISA) (Balb/c mice [2]; mouse, in vivo)
1 | Nc1ncnc2c1ncn2[C@@H]1O[C@H](COP(=O)(O)OP(=O)(O)OP(=O)(O)O)[C@@H](O)[C@H]1O [ATP, adenosine triphosphate] | Th2 cells are predominant | 2.28 | 0.670±0.033 | 
2 | cholera toxin [reference compound] |  | 1.46 |  | 0.551±0.202
